From patent US20040072839A1, “1-Phenylalkylpiperazines” (priority 2002, published 2004)
Read-outs that look alike come from different tables or passages of the source.

What was measured:
[1] = biological target: T1, human 5-HT1A-serotonergic receptor (Homo sapiens, UniProt P08908); assay: Radioligand binding to recombinant 5-HT1A receptors ([3H]8-OH-DPAT, HeLa cell membranes); conditions: 1 nM [3H]8-OH-DPAT; Ki from IC50 by Cheng & Prusoff; read-out: Ki, binding affinity for 5-HT1A receptors
T1 construct: expressed in transfected cells; host or cells: HeLa (human), stably transfected; membrane preparation
T1 sequence (P08908 1-422): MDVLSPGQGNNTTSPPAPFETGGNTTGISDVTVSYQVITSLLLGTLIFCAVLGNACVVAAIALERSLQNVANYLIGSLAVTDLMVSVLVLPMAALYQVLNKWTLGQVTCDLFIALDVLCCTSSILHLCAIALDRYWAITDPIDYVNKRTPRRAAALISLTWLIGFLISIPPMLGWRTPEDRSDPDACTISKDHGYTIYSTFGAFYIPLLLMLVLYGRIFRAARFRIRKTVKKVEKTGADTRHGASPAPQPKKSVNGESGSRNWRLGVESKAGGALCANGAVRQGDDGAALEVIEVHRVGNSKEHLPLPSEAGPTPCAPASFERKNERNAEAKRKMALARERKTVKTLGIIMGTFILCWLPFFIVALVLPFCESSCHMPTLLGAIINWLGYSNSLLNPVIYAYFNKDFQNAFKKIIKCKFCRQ
Procedure: Genomic clone coding for the human 5-HT1A-serotonergic receptor was stably transfected in a human cell line (HeLa). HeLa cells were grown as monolayers in Dulbecco's modified Eagle medium (DMEM), containing 10% foetal bovine serum, gentamycin (0.1 mg/ml) and 5% carbon dioxide, at 37° C. The cells were detached from the growth flask at 95% confluence by a cell scraper and were lysed in cold 5 mM Tris and 5 mM EDTA buffer (pH 7.4). The homogenates were centrifuged at 40000×g×20 minutes and the pellets were resuspended in a small volume of cold 5 mM Tris and 5 mM EDTA buffer (pH 7.4) and immediately frozen and stored at −70° C. until use. On the day of experiment, the cell membranes were resuspended in incubation buffer: 50 mM Tris HCl (pH 7.4), 2.5 mM MgCl2, […] (Fargin et al., Nature 335, 358-360, 1988). The membranes were incubated in a final volume of 1 ml for 30 minutes at 30° C. with 1 nM [^3H]8-OH-DPAT, in the absence or presence of the test compounds. Non-specific binding was determined in the presence of 10 μM 5-HT. Incubation was stopped by addition of cold Tris-HC1 buffer and rapid filtration through a 0.2%-polyethyleneimine-pretreated Whatman-GF/B or Schleicher-&-Schuell-GF52 filter.
The affinities of the tested compounds were evaluated as inhibition of specific binding of the radioligand to 5-HT1A receptors (IC50) by using the non-linear curve-fitting program Allfit (De Lean et al., Am. J. Physiol. 235, E97-E102 (1978). The IC50 value was converted to an affinity constant (Ki) by the equation of Cheng & Prusoff (Cheng Y. C., Prusoff W. H., Biochem. Pharmacol. 22, 3099-3108 (1973)).

[2] = test system: rhythmic bladder-voiding contractions in anaesthetised rats; assay: Rhythmic bladder-voiding contractions induced by bladder filling in anaesthetised rats; type: in vivo, rat; conditions: intravenous administration; for ED50: Rattus norvegicus
Procedure: Female Sprague-Dawley rats weighing 225-275 g (Crl: CD® (SD) IGS BR, Charles River Italia) were used. The animals were housed with free access to food and water and maintained on a forced 12-hour alternating light-dark cycle at 22-24° C. for at least one week, except during the experiment. The activity on rhythmic bladder voiding contractions was evaluated according to the method of Dray (Dray J., Pharmacol. Methods, 13:157, 1985), with some modifications as in Guarneri (Guarneri, Pharmacol. Res. 27:173, 1993). Briefly, rats were anaesthetised by subcutaneous injection of 1.25 g/kg (5 ml/kg) urethane, after which the urinary bladder was catheterised via the urethra using PE 50 polyethylene tubing filled with physiological saline. The catheter was tied in place with a ligature around the external urethral orifice and was connected to conventional pressure transducers (Statham P23 ID/P23 XL). […] The bladder was then filled via the recording catheter by incremental volumes of warm (37° C.) saline until reflex bladder-voiding contractions occurred (usually 0.8-1.5 ml). For intravenous injection of bioactive compounds, PE 50 polyethylene tubing filled with physiological saline was inserted into the jugular vein.
From the cystometrogram, the number of contractions recorded 15 minutes before (basal values) and after treatment, as well as the mean amplitude of these contractions (mean height of the peaks in mmHg), was evaluated.
Since most compounds produced an effect that was relatively rapid in onset and lead to a complete cessation of bladder contractions, bioactivity was conveniently estimated by measuring the duration of bladder quiescence (i.e., the length of the time during which no contractions occured). The number of tested animals showing a reduction in the number of contractions higher than 30% of that observed in the basal period was also recorded.
To compare the potency of the tested compounds for inhibiting the bladder voiding contractions, equieffective doses that result in the disappearance of contractions for a time of 10 minutes (ED10min) were computed by means of linear regression using the least square method. The extrapolated doses which induces a reduction in the number of contractions greater than 30% in 50% of the treated rats (ED50) was evaluated by the method of Bliss (Bliss C. I., Quart J. Pharm. Pharmacol. 11, 192-216, 1938).
Data represent the ED10min values (the extrapolated dose inducing 10 minutes of disappearance of the contractions), the ED50 (frequency) values (the extrapolated doses inducing a reduction of the number of contractions >30% in 50% of treated rats), and the ED50 (amplitude) values (the extrapolated doses inducing a 30% reduction of amplitude of the contractions in 50% of treated rats).

[3] = biological target: T2, 5-HT1A receptors (Rattus norvegicus, UniProt P19327); assay: Inhibition of stereotypy (rhythmic forepaw treading) induced by 8-OH-DPAT in rats (post-synaptic antagonism); type: in vivo; conditions: for % Inhibition of forepaw treading, 1 h / % Inhibition of forepaw treading, 4 h: 10 mg/kg p.o.; for % Inhibition of forepaw treading, 1 h: given 1 h before 8-OH-DPAT (1 mg/kg s.c.); for % Inhibition of forepaw treading, 4 h: given 4 h before 8-OH-DPAT (1 mg/kg s.c.)
T2 construct: stereotyped forepaw treading induced in rats by subcutaneous injection of 8-OH-DPAT; from tissue; host or cells: whole animal (male Sprague-Dawley rats), endogenous post-synaptic receptors
T2 sequence (P19327 1-422): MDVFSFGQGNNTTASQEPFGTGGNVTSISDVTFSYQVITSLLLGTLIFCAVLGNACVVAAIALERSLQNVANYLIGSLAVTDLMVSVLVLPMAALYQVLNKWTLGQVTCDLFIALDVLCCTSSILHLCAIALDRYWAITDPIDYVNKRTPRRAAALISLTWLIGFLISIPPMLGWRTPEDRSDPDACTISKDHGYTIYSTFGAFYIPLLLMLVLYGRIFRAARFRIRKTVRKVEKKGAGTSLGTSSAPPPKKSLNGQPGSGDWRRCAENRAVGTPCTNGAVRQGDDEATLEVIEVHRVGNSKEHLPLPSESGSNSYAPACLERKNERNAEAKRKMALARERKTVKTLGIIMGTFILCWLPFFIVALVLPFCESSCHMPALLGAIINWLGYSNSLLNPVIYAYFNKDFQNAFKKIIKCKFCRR
Procedure: The inhibitory effect of 5-HT1A-receptor antagonists on stereotyped forepaw treading induced in rats by subcutaneous injection of 8-OH-DPAT was evaluated by the method of Tricklebank (Tricklebank et al., Eur. J. Pharmacol., 117: 15, 1985) with minor modifications as described below.
Male Sprague-Dawley rats[Crl: CD® (SD) IGS BR] weighing 150-175 g from Charles River Italia were used. The animals were housed with free access to food and water and maintained on a forced 12-hour-light/12-hour-dark cycle at 22-24° C. of temperature. On the day of the experiment, the rats were placed singly in clear plastic containers, 10-15 minutes before administration of the vehicle or compounds to be tested. For evaluation of antagonistic activity after oral administration, the compounds were administered 1 and 4 hours before induction of stereotypy by 8-OH-DPAT (1 mg/kg subcutaneously). Observation sessions last 30 seconds and were begun 3 minutes after 8-OH-DPAT treatment and repeated every 3 minutes over a period of 15 minutes.
The appearance of the symptom induced by postsynaptic stimulation of 5-HT1A receptors was noted, and the intensity was scored using an intensity scale in which: 0=absent, 1=equivocal, 2=present and 3=intense. Behavioural scores for treated rats were accumulated throughout the observation time (5 observation periods) and expressed as mean values of 4 rats/dose. Change in mean values of treated animals in comparison with control (vehicle) group, expressed as per-cent inhibition, were used to quantify the antagonistic activity.

[4] = urethane-anaesthetised female rats, read-out: ED50 (frequency) (extrapolated dose inducing a reduction of the number of contractions >30% in 50% of treated rats)
[5] = urethane-anaesthetised female rats

SMILES	Ki [1] [nM]	ED50 [2, 4] [mg/kg]	ED10 min (extrapolated dose inducing 10 minutes of disappearance of the contractions) [2, 5] [mg/kg]	% Inhibition of forepaw treading, 1 h [3] [%]	% Inhibition of forepaw treading, 4 h [3] [%]	inhibition of stereotypy induced by 8-OH-DPAT (in words) ([3]; oral administration)	ED50 ([2]; n.a. = not active, no significant reduction of the height of the peaks, read-out: ED50 (amplitude) (extrapolated dose inducing a 30% reduction of amplitude of the contractions in 50% of treated rats)) [mg/kg]
COc1ccccc1N1CCN(CC[C@H](c2ccccc2F)[C@@H](OC(C)=O)C2CCCCC2)CC1 (racemic) [Example 45, (RS,SR) 1-[4-Acetoxy-4-cyclohexyl-3-(2-fluorophenyl)butyl]-4-(2-methoxyphenyl)piperazine]	0.54	0.127	0.584	100	81	potent and long-lasting inhibition	
CCNC(=O)O[C@@H](C1CCCCC1)[C@H](CCN1CCN(c2ccccc2OC)CC1)c1ccccc1F (racemic) [Example 47, (RS,SR) 1-[4-Cyclohexyl-4-ethylaminocarbonyloxy-3-(2-fluorophenyl)butyl]-4-(2-methoxyphenyl)piperazine]	0.85			56	58		
COc1ccccc1N1CCN(CC[C@H](c2ccccc2F)[C@@H](OC(N)=O)C2CCCCC2)CC1 (racemic) [Example 48, (RS,SR) 1-[4-Aminocarbonyloxy-4-cyclohexyl-3-(2-fluorophenyl)butyl]-4-(2-methoxyphenyl)piperazine]	0.36			90	74		
COc1cc(F)ccc1N1CCN(CCC(c2ccccc2C#N)C(O)C2CCCCC2)CC1 (stereo not drawn) [Example 16, 1-[3-(2-Cyanophenyl)-4-cyclohexyl-4-hydroxybutyl]-4-(4-fluoro-2-methoxyphenyl)piperazine]	0.9			40	17		
CC#CC(O)C(CCN1CCN(c2cccc3c2OCCO3)CC1)c1ccccc1 (stereo not drawn) [Example 31, 1-[5-(2,3-Dihydro-1,4-benzodioxinyl)]-4-(4-hydroxy-3-phenylhept-5-ynyl)piperazine]	2.71			60	18		
CN(C)C(=O)c1ccccc1C(CCN1CCN(c2cccc3c2OCCO3)CC1)C(=O)C1CCCCC1 (stereo not drawn) [Example 39, 1-[4-Cyclohexyl-3-(2-dimethylaminocarbonylphenyl)-4-oxobutyl]-4-[5-(2,3-dihydro-1,4-benzodioxinyl)]piperazine]	2.92						
CN(C)C(=O)c1ccccc1C(CCN1CCN(c2cccc3c2OCCO3)CC1)C(O)C1CCCCC1 (stereo not drawn) [Example 40, 1-[4-Cyclohexyl-3-(2-dimethylaminocarbonylphenyl)-4-hydroxybutyl]-4-[5-(2,3-dihydro-1,4-benzodioxinyl)]piperazine]	1.84						
COc1cc(F)ccc1N1CCN(CCC(c2ccccc2C(=O)N(C)C)C(O)C2CCCCC2)CC1 (stereo not drawn) [Example 42, 1-[4-Cyclohexyl-3-(2-dimethylaminocarbonylphenyl)-4-hydroxybutyl]-4-(4-fluoro-2-methoxyphenyl)piperazine]	4.87						
O=C(C1CCCCC1)C(CCN1CCN(c2cccc3[nH]ccc23)CC1)c1ccccc1OC(F)(F)F (stereo not drawn) [Example 44, 1-[4-Cyclohexyl-3-(2-trifluoromethoxyphenyl)-4-oxobutyl]-4-(4-indolyl)piperazine]	1.14						
CN1CC[C@]23c4c5ccc(O)c4O[C@H]2[C@@H](O)C=C[C@H]3[C@H]1C5 [Morphine]		0.03	0.05				
CCN(CC)CC#CCOC(=O)C(O)(c1ccccc1)C1CCCCC1 (stereo not drawn) [Oxybutynin]		> 10	7.77				0.24
